Measurements taken from patent publication US6680332B1, “Substituted 5-oxo-5,6,7,8-tetrahydro-4H-1-benzopyrans and benzothiopyrans and the use thereof as potentiators of AMPA” (Euro-Celtique S.A., priority 1999, dated 2004).
Values joined by “and” are separate entries in the source; they are usually repeats but may differ in a detail not shown here. Equal entries are not always repeated.

What was measured:
AMPA receptors = test: Electrophysiology: potentiation of AMPA-evoked membrane currents in Xenopus oocytes injected with rat cortical poly(A)+ RNA (two-electrode voltage clamp); assay type: cell-based; details: 10 μM AMPA; for AMPA positive potentiation 2-fold @ μM (concentration required for 2-fold potentiation of the AMPA response): rat cortical poly(A)+ RNA, holding potential -70 mV
Protocol: FIG. 1 depicts a graph showing the concentration-effect relationship for the potentiation of AMPA-evoked currents in Xenopus oocytes by the compound of Example 4. Xenopus oocytes were injected with rat cortical poly (A+) RNA and membrane currents were measured by a standard, two-microelectrode voltage clamp method. A solution of AMPA (10 μM) was superfused through the recording chamber in the absence (control) or presence of increasing concentrations of the compound of Example 4. “I” is membrane current.
The novel compounds of the invention were assessed by electrophysiological assays in Xenopus oocytes expressing rat […] poly(A)^+ RNA (see Keana et al, J. Med. Chem. 38:4367-4379 (1995)) or in cultured rat cortical neurons (see Woodward et al., Mol. Pharmacol. 47:568-581 (1995)) for AMPA receptor activity. The compounds that potentiate currents across the oocyte membrane are expected to be useful as cognitive enhancers or for the treatment of schizophrenia, myoclonus or neurodegenerative diseases such as Parkinson's disease and Alzheimer's disease. Thus, the present invention is directed to compounds that are positive modulators of AMPA receptors.
Total RNA was prepared from rat cerebral cortex by homogenization in urea/LiCl followed by phenol/chloroform extraction. Polyadenylated (poly A^+) mRNA was isolated from total cellular RNA by oligo-dT cellulose chromatography. Xenopus oocytes were prepared by the method of Woodward et al. (Mol. Pharmacol. 41, 89-103 (1992)). Oocytes were microinjected with approximately 50 ng of cortical poly(A)^+ RNA and stored in Barth's medium (containing in mM: NaCl, 88; KCl, 1; CaCl2, 0.41; Ca(NO3)2, 0.33; MgSO4, 0.82; NaHCO3, 2.4; HEPES 5; pH 7.4, with 0.1 mg/ml gentamycin sulphate) for 6 days prior to recording. Membrane current responses were recorded in frog Ringer solution containing (in mM): NaCl, 115; KCl, 2; CaCl2, 1.8; HEPES, 5; pH 7.4, or in a nominally Ca^2+-free Ringer solution containing (in mM): NaCl, 115; KCl, 2; BaCl2, 1.8; HEPES, 5; pH 7.4. Electrical recordings were made using a conventional two-electrode voltage clamp (Dagan TEV-200). The oocyte was placed in a 5 ml chamber lined with nylon mesh, impaled with two micro-electrodes and voltage-clamped at a holding potential of −70 mV. A scaled up linear array system (Benveniste and Mayer, J. Physiol. 464, 131-163 (1993)) was used to superfuse the oocyte in Ringer solution and to apply drugs and wash solutions. A control concentration (10 μM) of AMPA was applied to the oocyte to determine a baseline membrane current response. The modulation of this response by AMPA potentiators was measured by applying increasing concentrations of the potentiator in Ringer solution for ˜30 s followed by coapplication of the potentiator with 10 μM AMPA. The resulting membrane current responses were analyzed by sigmoidal curve fitting (Origin, Microcal Software, Inc.).

Row | Compound | AMPA positive potentiation 2-fold @ μM (concentration required for 2-fold potentiation of the AMPA response) (AMPA receptors) | EC50 (AMPA receptors; sigmoidal curve fitting, read-out: half-maximally effective concentration for potentiation of the AMPA response) | maximal potentiation of the AMPA response (AMPA receptors; at 100 μM compound) | melting point
1 | 2-Amino-3-cyano-7,7-dimethyl-4-(3,4-difluoromethylenedioxyphenyl)-5-oxo-5,6,7,8-tetrahydro-4H-1-benzopyran [Example 15] | 18.0 µM | – | – | –
2 | COc1ccc(C2C(C#N)=C(N)OC3=C2C(=O)CC(C)(C)C3)cc1 (stereo not drawn) [Example 1, 2-Amino-3-cyano-7,7-dimethyl-4-(4-methoxyphenyl)-5-oxo-5,6,7,8-tetrahydro-4H-1-benzopyran] | 7.0 µM | – | – | –
3 | Cc1cc(C)c(C2C(C#N)=C(N)OC3=C2C(=O)CC(C)(C)C3)c(C)c1 (stereo not drawn) [Example 2, 2-Amino-3-cyano-7,7-dimethyl-4-(2,4,6-trimethylphenyl)-5-oxo-5,6,7,8-tetrahydro-4H-1-benzopyran] | 4.0 µM | – | – | –
4 | CC1(C)CC(=O)C2=C(C1)OC(N)=C(C#N)C2c1ccccc1 (stereo not drawn) [Example 3, 2-Amino-3-cyano-7,7-dimethyl-4-phenyl-5-oxo-5,6,7,8-tetrahydro-4H-1-benzopyran] | 12.0 µM | – | – | –
5 | CC1(C)CC(=O)C2=C(C1)OC(N)=C(C#N)C2c1ccc2c(c1)OCO2 (stereo not drawn) [Example 4, 2-Amino-3-cyano7,7-dimethyl-4-(3,4-methylenedioxyphenyl)-5-oxo-5,6,7,8-tetrahydro-4H-1-benzopyran] | 4 µM and 4.0 µM | 16.6 µM | 11 fold | –
6 | COc1ccc(C2C(C#N)=C(N)OC3=C2C(=O)CCC3)cc1 (stereo not drawn) [Example 5, 2-Amino-3-cyano-4-(4-methoxyphenyl)-5-oxo-5,6,7,8-tetrahydro-4H-1-benzopyran] | 35.0 µM | – | – | 209 to 212 °C
7 | CC1(C)CC(=O)C2=C(C1)OC(N)=C(C#N)C2c1ccc(Cl)cc1 (stereo not drawn) [Example 6, 2-Amino-3-cyano-4-(4chlorophenyl)-7,7-dimethyl-5-oxo-5,6,7,8-tetrahydro-4N-1-benzopyran] | 18.0 µM | – | – | –
8 | CC1(C)CC(=O)C2=C(C1)OC(N)=C(C#N)C2c1cccc(O)c1 (stereo not drawn) [Example 7, 2-Amino-3-cyano-7,7-dimethyl-4-(3-hydroxyphenyl)-5-oxo-5,6,7,8-tetrahydro-4H-1-benzopyran] | 12.0 µM | – | – | 214 to 217 °C
9 | Cc1ccc(C2C(C#N)=C(N)OC3=C2C(=O)CC(C)(C)C3)cc1 (stereo not drawn) [Example 8, 2-Amino-3-cyano-7,7-dimethyl-4-(4-methylphenyl)-5-oxo-5,6,7,8-tetrahydro-4H-1-benzopyran] | 12.0 µM | – | – | –
10 | CN(C)c1ccc(C2C(C#N)=C(N)OC3=C2C(=O)CC(C)(C)C3)cc1 (stereo not drawn) [Example 9, 2-Amino-3-cyano-7,7-dimethyl-4-(4-dimethylaminophenyl)-5-oxo-5,6,7,8-tetrahydro-4H-1-benzopyran] | 12.0 µM | – | – | 221 to 224 °C
11 | CC1(C)CC(=O)C2=C(C1)OC(N)=C(C#N)C2c1ccc(O)cc1 (stereo not drawn) [Example 10, 2-Amino-3-cyano-7,7-dimethyl-4-(4-hydroxyphenyl)-5-oxo-5,6,7,8-tetrakydro-4H-1-benzopyran] | 14.0 µM | – | – | –
12 | COc1cccc(C2C(C#N)=C(N)OC3=C2C(=O)CC(C)(C)C3)c1 (stereo not drawn) [Example 11, 2-Amino-3-cyano-7,7-dimethyl-4-(3-methzoxyphenyl)-5-oxo-5,6,7,8-tetrahydro-4H-1-benzopyran] | 6.0 µM | – | – | –
13 | CC1(C)CC(=O)C2=C(C1)OC(N)=C(C#N)C2c1ccc([N+](=O)[O-])cc1 (stereo not drawn) [Example 12, 2-Amino-3-cyano-7,7-dimethyl-4-(4-nitrophenyl)-5-oxo-5,6,7,8-tetrakydro-4H-1-benzopyran] | 60.0 µM | – | – | –
14 | CC1(C)CC(=O)C2=C(C1)OC(N)=C(C#N)C2c1ccncc1 (stereo not drawn) [Example 13, 2-Amino-3-cyano-7,7-dimethyl-4-(4-pyridyl)-5-oxo-5,6,7,8-tetrahydro-4H-1-benzopyran] | 60.0 µM | – | – | 222 to 224 °C
15 | COc1cc(C2C(C#N)=C(N)OC3=C2C(=O)CC(C)(C)C3)cc2c1OCO2 (stereo not drawn) [Example 14, 2-Amino-3-cyano-7,7-dimethyl-4-(3-methoxy-4,5-methylenedioxyphenyl)-5-oxo-5,6,7,8-tetrahydro-4H-1-benzopyran] | 12.0 µM | – | – | –
16 | CC1(C)CC(=O)C2=C(C1)OC(N)=C(C#N)C2c1ccc(C#N)cc1 (stereo not drawn) [Example 16, 2-Amino-3-cyano-4-(4-cyanophenyl)-7,7-dimethyl-5-oxo-5,6,7,8-tetrahydro-4H-1-benzopyran] | 20.0 µM | – | – | 227 to 230 °C
17 | CC1(C)CC(=O)C2=C(C1)OC(N)=C(C#N)C2c1ccc(F)cc1 (stereo not drawn) [Example 17, 2-Amino-3-cyano-7,7-dimethyl-4-(4-fluorophenyl)-5-oxo-5,6,7,8-tetrahydro-4H-1-benzopyran] | 27.0 µM | – | – | 189 to 193 °C
18 | CC1(C)CC(=O)C2=C(C1)OC(N)=C(C#N)C2c1ccc2ccccc2c1 (stereo not drawn) [Example 18, 2-Amino-3-cyano-7,7-dimethyl-4-(2-naphthyl)-5-oxo-5,6,7,8-tetrahydro-4H-1-benzopyran] | 1.6 µM | – | – | 259 to 262 °C
